Experimental data published in ChEMBL document CHEMBL1150798, “Combined therapies in a murine model of blastoschizomycosis” (2007).
Converted amounts (≈) assume the structure as drawn. Starred links: 1 amine or outer side, 2 acyl side, 3 side chain; linkers in the order of their positions; H or OH if unused. Positions of bridges follow the written chain, without caps; N, C: chain ends. Non-standard residues stand in square brackets, D forms with d. Residues, ends and D or L forms follow the SMILES beside them. *: point of attachment. hTyr(3S-OH,4S-OH,3'-OSO3H) = N[C@H](C(=O)O)[C@H](O)[C@@H](O)c1ccc(O)c(OS(=O)(=O)O)c1; Orn(4R-OH,5R-OH) = O=C([C@H](C[C@@H](O)[C@@H](O)N[*:3])N[*:1])[*:2]; Pro(3S-OH,4S-Me) = C[C@H]1CN[C@H](C(=O)O)[C@H]1O; X1 = CCCCCOc1ccc(-c2cc(-c3ccc(C(=O)*)cc3)no2)cc1; Gln(3R-OH) = NC(=O)C[C@@H](O)[C@H](N)C(=O)O; Hyp = O=C(O)[C@@H]1C[C@@H](O)CN1

Experiments:
Type in all cases: functional
Magnusiomyces capitatus [1] = test: Antimicrobial activity against Blastoschizomyces capitatus IHEM 5666 isolate by microdilution method
Magnusiomyces capitatus [2] = test: Antimicrobial activity against Blastoschizomyces capitatus IHEM 16105 isolate infected OF1 mouse blastoschizomycosis model assessed as mean survival time at 1 mg/kg/day, ip for 6 days administered 1 hr before microbial challenge; settings: route intraperitoneal
Magnusiomyces capitatus [3] = test: Antimicrobial activity against Blastoschizomyces capitatus IHEM 5666 isolate infected OF1 mouse blastoschizomycosis model assessed as mean survival time at 1 mg/kg/day, ip for 6 days administered 1 hr before microbial challenge; settings: route intraperitoneal
Magnusiomyces capitatus [4] = test: Antimicrobial activity against Blastoschizomyces capitatus IHEM 16105 isolate infected OF1 mouse blastoschizomycosis model assessed as liver microbial count per gram of tissue at 1 mg/kg/day, ip for 6 days administered 1 hr before microbial challenge; settings: route intraperitoneal
Magnusiomyces capitatus [5] = test: Antimicrobial activity against Blastoschizomyces capitatus IHEM 16105 isolate infected OF1 mouse blastoschizomycosis model assessed as spleen microbial count per gram of tissue at 1 mg/kg/day, ip for 6 days administered 1 hr before microbial challenge; settings: route intraperitoneal
Magnusiomyces capitatus [6] = test: Antimicrobial activity against Blastoschizomyces capitatus IHEM 16105 isolate infected OF1 mouse blastoschizomycosis model assessed as kidney microbial count per gram of tissue at 1 mg/kg/day, ip for 6 days administered 1 hr before microbial challenge; settings: route intraperitoneal
Magnusiomyces capitatus [7] = test: Antimicrobial activity against Blastoschizomyces capitatus IHEM 5666 isolate infected OF1 mouse blastoschizomycosis model assessed as liver microbial count at 1 mg/kg/day, ip for 6 days administered 1 hr before microbial challenge; settings: route intraperitoneal
Magnusiomyces capitatus [8] = test: Antimicrobial activity against Blastoschizomyces capitatus IHEM 5666 isolate infected OF1 mouse blastoschizomycosis model assessed as spleen microbial count at 1 mg/kg/day, ip for 6 days administered 1 hr before microbial challenge; settings: route intraperitoneal
Magnusiomyces capitatus [9] = test: Antimicrobial activity against Blastoschizomyces capitatus IHEM 5666 isolate infected OF1 mouse blastoschizomycosis model assessed as kidney microbial count at 1 mg/kg/day, ip for 6 days administered 1 hr before microbial challenge; settings: route intraperitoneal
Magnusiomyces capitatus [10] = test: Antimicrobial activity against Blastoschizomyces capitatus IHEM 16105 isolate infected OF1 mouse blastoschizomycosis model assessed as mean survival time at 80 mg/kg/day, po for 6 days administered 1 hr before microbial challenge
Magnusiomyces capitatus [11] = test: Antimicrobial activity against Blastoschizomyces capitatus IHEM 5666 isolate infected OF1 mouse blastoschizomycosis model assessed as mean survival time at 80 mg/kg/day, po for 6 days administered 1 hr before microbial challenge
Magnusiomyces capitatus [12] = test: Antimicrobial activity against Blastoschizomyces capitatus IHEM 16105 isolate infected OF1 mouse blastoschizomycosis model assessed as liver microbial count per gram of tissue at 80 mg/kg/day, po for 6 days administered 1 hr before microbial challenge
Magnusiomyces capitatus [13] = test: Antimicrobial activity against Blastoschizomyces capitatus IHEM 16105 isolate infected OF1 mouse blastoschizomycosis model assessed as spleen microbial count per gram of tissue at 80 mg/kg/day, po for 6 days administered 1 hr before microbial challenge
Magnusiomyces capitatus [14] = test: Antimicrobial activity against Blastoschizomyces capitatus IHEM 16105 isolate infected OF1 mouse blastoschizomycosis model assessed as kidney microbial count per gram of tissue at 80 mg/kg/day, po for 6 days administered 1 hr before microbial challenge
Magnusiomyces capitatus [15] = test: Antimicrobial activity against Blastoschizomyces capitatus IHEM 5666 isolate infected OF1 mouse blastoschizomycosis model assessed as liver microbial count per gram of tissue at 80 mg/kg/day, po for 6 days administered 1 hr before microbial challenge
Magnusiomyces capitatus [16] = test: Antimicrobial activity against Blastoschizomyces capitatus IHEM 5666 isolate infected OF1 mouse blastoschizomycosis model assessed as spleen microbial count per gram of tissue at 80 mg/kg/day, po for 6 days administered 1 hr before microbial challenge
Magnusiomyces capitatus [17] = test: Antimicrobial activity against Blastoschizomyces capitatus IHEM 5666 isolate infected OF1 mouse blastoschizomycosis model assessed as kidney microbial count per gram of tissue at 80 mg/kg/day, po for 6 days administered 1 hr before microbial challenge
Magnusiomyces capitatus [18] = test: Antimicrobial activity against Blastoschizomyces capitatus IHEM 16105 isolate infected OF1 mouse blastoschizomycosis model assessed as spleen microbial count per gram of tissue at 60 mg/kg/day, po for 6 days administered 1 hr before microbial challenge
Magnusiomyces capitatus [19] = test: Antimicrobial activity against Blastoschizomyces capitatus IHEM 16105 isolate by microdilution method
Magnusiomyces capitatus [20] = test: Antimicrobial activity against Blastoschizomyces capitatus IHEM 16105 isolate infected OF1 mouse blastoschizomycosis model assessed as mean survival time at 60 mg/kg/day, po for 6 days administered 1 hr before microbial challenge
Magnusiomyces capitatus [21] = test: Antimicrobial activity against Blastoschizomyces capitatus IHEM 5666 isolate infected OF1 mouse blastoschizomycosis model assessed as mean survival time at 60 mg/kg/day, po for 6 days administered 1 hr before microbial challenge
Magnusiomyces capitatus [22] = test: Antimicrobial activity against Blastoschizomyces capitatus IHEM 16105 isolate infected OF1 mouse blastoschizomycosis model assessed as liver microbial count per gram of tissue at 60 mg/kg/day, po for 6 days administered 1 hr before microbial challenge
Magnusiomyces capitatus [23] = test: Antimicrobial activity against Blastoschizomyces capitatus IHEM 16105 isolate infected OF1 mouse blastoschizomycosis model assessed as kidney microbial count per gram of tissue at 60 mg/kg/day, po for 6 days administered 1 hr before microbial challenge
Magnusiomyces capitatus [24] = test: Antimicrobial activity against Blastoschizomyces capitatus IHEM 5666 isolate infected OF1 mouse blastoschizomycosis model assessed as liver microbial count at 60 mg/kg/day, po for 6 days administered 1 hr before microbial challenge
Magnusiomyces capitatus [25] = test: Antimicrobial activity against Blastoschizomyces capitatus IHEM 5666 isolate infected OF1 mouse blastoschizomycosis model assessed as spleen microbial count at 60 mg/kg/day, po for 6 days administered 1 hr before microbial challenge
Magnusiomyces capitatus [26] = test: Antimicrobial activity against Blastoschizomyces capitatus IHEM 5666 isolate infected OF1 mouse blastoschizomycosis model assessed as kidney microbial count at 60 mg/kg/day, po for 6 days administered 1 hr before microbial challenge
Magnusiomyces capitatus [27] = test: Antimicrobial activity against Blastoschizomyces capitatus IHEM 5666 isolate infected OF1 mouse blastoschizomycosis model assessed as spleen microbial count at 10 mg/kg/day, sc for 6 days administered 1 hr before microbial challenge; settings: route subcutaneous
Magnusiomyces capitatus [28] = test: Antimicrobial activity against Blastoschizomyces capitatus IHEM 5666 isolate infected OF1 mouse blastoschizomycosis model assessed as kidney microbial count at 10 mg/kg/day, sc for 6 days administered 1 hr before microbial challenge; settings: route subcutaneous
Magnusiomyces capitatus [29] = test: Antimicrobial activity against Blastoschizomyces capitatus IHEM 16105 isolate infected OF1 mouse blastoschizomycosis model assessed as mean survival time at 10 mg/kg/day, sc for 6 days administered 1 hr before microbial challenge; settings: route subcutaneous
Magnusiomyces capitatus [30] = test: Antimicrobial activity against Blastoschizomyces capitatus IHEM 5666 isolate infected OF1 mouse blastoschizomycosis model assessed as mean survival time at 10 mg/kg/day, sc for 6 days administered 1 hr before microbial challenge; settings: route subcutaneous
Magnusiomyces capitatus [31] = test: Antimicrobial activity against Blastoschizomyces capitatus IHEM 16105 isolate infected OF1 mouse blastoschizomycosis model assessed as liver microbial count per gram of tissue at 10 mg/kg/day, sc for 6 days administered 1 hr before microbial challenge; settings: route subcutaneous
Magnusiomyces capitatus [32] = test: Antimicrobial activity against Blastoschizomyces capitatus IHEM 16105 isolate infected OF1 mouse blastoschizomycosis model assessed as spleen microbial count per gram of tissue at 10 mg/kg/day, sc for 6 days administered 1 hr before microbial challenge; settings: route subcutaneous
Magnusiomyces capitatus [33] = test: Antimicrobial activity against Blastoschizomyces capitatus IHEM 16105 isolate infected OF1 mouse blastoschizomycosis model assessed as kidney microbial count per gram of tissue at 10 mg/kg/day, sc for 6 days administered 1 hr before microbial challenge; settings: route subcutaneous
Magnusiomyces capitatus [34] = test: Antimicrobial activity against Blastoschizomyces capitatus IHEM 5666 isolate infected OF1 mouse blastoschizomycosis model assessed as liver microbial count at 10 mg/kg/day, sc for 6 days administered 1 hr before microbial challenge; settings: route subcutaneous
Magnusiomyces capitatus [35] = test: Antimicrobial activity against Blastoschizomyces capitatus IHEM 16105 isolate infected OF1 mouse blastoschizomycosis model assessed as mean survival time at 40 mg/kg/day, po for 6 days administered 1 hr before microbial challenge
Magnusiomyces capitatus [36] = test: Antimicrobial activity against Blastoschizomyces capitatus IHEM 5666 isolate infected OF1 mouse blastoschizomycosis model assessed as mean survival time at 40 mg/kg/day, po for 6 days administered 1 hr before microbial challenge
Magnusiomyces capitatus [37] = test: Antimicrobial activity against Blastoschizomyces capitatus IHEM 16105 isolate infected OF1 mouse blastoschizomycosis model assessed as liver microbial count per gram of tissue at 40 mg/kg/day, po for 6 days administered 1 hr before microbial challenge
Magnusiomyces capitatus [38] = test: Antimicrobial activity against Blastoschizomyces capitatus IHEM 16105 isolate infected OF1 mouse blastoschizomycosis model assessed as spleen microbial count per gram of tissue at 40 mg/kg/day, po for 6 days administered 1 hr before microbial challenge
Magnusiomyces capitatus [39] = test: Antimicrobial activity against Blastoschizomyces capitatus IHEM 16105 isolate infected OF1 mouse blastoschizomycosis model assessed as kidney microbial count per gram of tissue at 40 mg/kg/day, po for 6 days administered 1 hr before microbial challenge
Magnusiomyces capitatus [40] = test: Antimicrobial activity against Blastoschizomyces capitatus IHEM 5666 isolate infected OF1 mouse blastoschizomycosis model assessed as liver microbial count at 40 mg/kg/day, po for 6 days administered 1 hr before microbial challenge
Magnusiomyces capitatus [41] = test: Antimicrobial activity against Blastoschizomyces capitatus IHEM 5666 isolate infected OF1 mouse blastoschizomycosis model assessed as spleen microbial count at 40 mg/kg/day, po for 6 days administered 1 hr before microbial challenge
Magnusiomyces capitatus [42] = test: Antimicrobial activity against Blastoschizomyces capitatus IHEM 5666 isolate infected OF1 mouse blastoschizomycosis model assessed as kidney microbial count at 40 mg/kg/day, po for 6 days administered 1 hr before microbial challenge

C[C@@H]1[C@H](O)[C@@H](C)/C=C/C=C/C=C/C=C/C=C/C=C/C=C/[C@H](O[C@@H]2O[C@H](C)[C@@H](O)[C@H](N)[C@@H]2O)C[C@@H]2O[C@](O)(C[C@@H](O)C[C@@H](O)[C@H](O)CC[C@@H](O)C[C@@H](O)CC(=O)O[C@H]1C)C[C@H](O)[C@H]2C(=O)O [AMPHOTERICIN B]
MIC (Magnusiomyces capitatus [1]): 1 mg/L (≈ 1.08 µM)
MST (Magnusiomyces capitatus [2]): 12.3 days
MST (Magnusiomyces capitatus [3]): 12.2 days
log10cfu (Magnusiomyces capitatus [4]): 5.17
log10cfu (Magnusiomyces capitatus [5]): 6.02
log10cfu (Magnusiomyces capitatus [6]): 7
log10cfu (Magnusiomyces capitatus [7]): 4.47
log10cfu (Magnusiomyces capitatus [8]): 4.87
log10cfu (Magnusiomyces capitatus [9]): 7.39

OC(Cn1cncn1)(Cn1cncn1)c1ccc(F)cc1F [FLUCONAZOLE]
MIC (Magnusiomyces capitatus [1]): 16 mg/L (≈ 52.2 µM)
MST (Magnusiomyces capitatus [10]): 25.7 days
MST (Magnusiomyces capitatus [11]): 30 days
log10cfu (Magnusiomyces capitatus [12]): 1.37
log10cfu (Magnusiomyces capitatus [13]): 1.59
log10cfu (Magnusiomyces capitatus [14]): 3.72
log10cfu (Magnusiomyces capitatus [15]): 2.49
log10cfu (Magnusiomyces capitatus [16]): 2.05
log10cfu (Magnusiomyces capitatus [17]): 4.31

Nc1nc(=O)[nH]cc1F [FLUCYTOSINE]
log10cfu (Magnusiomyces capitatus [18]): 5.45
MIC (Magnusiomyces capitatus [19]): 0.25 mg/L (≈ 1.94 µM)
MIC (Magnusiomyces capitatus [1]): 64 mg/L (≈ 496 µM)
MST (Magnusiomyces capitatus [20]): 17.7 days
MST (Magnusiomyces capitatus [21]): 7.6 days
log10cfu (Magnusiomyces capitatus [22]): 4.28
log10cfu (Magnusiomyces capitatus [23]): 7.29
log10cfu (Magnusiomyces capitatus [24]): 5.69
log10cfu (Magnusiomyces capitatus [25]): 6.76
log10cfu (Magnusiomyces capitatus [26]): 7.13

CCCCCOc1ccc(-c2cc(-c3ccc(C(=O)N[C@H]4C[C@@H](O)[C@@H](O)NC(=O)[C@@H]5[C@@H](O)[C@@H](C)CN5C(=O)[C@H]([C@H](O)CC(N)=O)NC(=O)[C@H]([C@H](O)[C@@H](O)c5ccc(O)c(OS(=O)(=O)O)c5)NC(=O)[C@@H]5C[C@@H](O)CN5C(=O)[C@H]([C@@H](C)O)NC4=O)cc3)no2)cc1 [MICAFUNGIN] (X1-[Orn(4R-OH,5R-OH)]T[Hyp][hTyr(3S-OH,4S-OH,3'-OSO3H)][Gln(3R-OH)][Pro(3S-OH,4S-Me)]; lactam 1-C)
log10cfu (Magnusiomyces capitatus [27]): 7.03
log10cfu (Magnusiomyces capitatus [28]): 7.52
MIC (Magnusiomyces capitatus [19]): 64 mg/L (≈ 50.4 µM)
MIC (Magnusiomyces capitatus [1]): 64 mg/L (≈ 50.4 µM)
MST (Magnusiomyces capitatus [29]): 7.59 days
MST (Magnusiomyces capitatus [30]): 6.6 days
log10cfu (Magnusiomyces capitatus [31]): 5.26
log10cfu (Magnusiomyces capitatus [32]): 7.69
log10cfu (Magnusiomyces capitatus [33]): 7.5
log10cfu (Magnusiomyces capitatus [34]): 5.32

C[C@@H](c1ncncc1F)[C@](O)(Cn1cncn1)c1ccc(F)cc1F [VORICONAZOLE]
MIC (Magnusiomyces capitatus [19]): 1 mg/L (≈ 2.86 µM)
MIC (Magnusiomyces capitatus [1]): 0.25 mg/L (≈ 0.716 µM)
MST (Magnusiomyces capitatus [35]): 15.78 days
MST (Magnusiomyces capitatus [36]): 17.1 days
log10cfu (Magnusiomyces capitatus [37]): 4.33
log10cfu (Magnusiomyces capitatus [38]): 5.56
log10cfu (Magnusiomyces capitatus [39]): 6.98
log10cfu (Magnusiomyces capitatus [40]): 5.63
log10cfu (Magnusiomyces capitatus [41]): 4.75
log10cfu (Magnusiomyces capitatus [42]): 6.78
